Assay results: patent EP0115714A1, “Pharmaceutical composition with psychotropic dopaminergic action” (priority 1983, dated 1984)

Experiments:
activité antifilariale = conditions: H.W. Stewart et al., J. Org. Chem. 1953, 18, 1478; cited from earlier work
[1] = H.W. Stewart et al., J. Org. Chem. 1953, 18, 1478; cited from earlier work
[2] = system: catalepsie provoquée par la prochlorpérazine; assay: Antagonism of the onset of prochlorperazine-induced catalepsy (cork test; predictive of antidepressant activity); assay type: in vivo, rats mâles Wistar; conditions: rats, prochlorperazine 10 mg/kg s.c. 1 h later, read 5 h after
Text: L'activité antidépressive des composés de l'invention a été évaluée dans le test de l'antagonisme vis-à-vis de l'installation de la catalepsie provoquée par la prochlorrérazine (K. Bizière et al., Arzneimittel Forschung, 1982, 32 (II), 824).
Un composé représentatif de l'invention, à savoir le monomaléate de 2-(1-pipérazinyl)pyrimidine, a été administré par voie intrapéritonéale à des groupes de 10 rats mâles Wistar pesant 220-240 g; des animaux de contrôle ont été en même temps traités par du sérum physiologique. Une heure après, les animaux ont reçu, par voie sous-cutanée, de la prochlorpérazine à une dose de […]. Cinq heures après cette administration, le nombre d'animaux cataleptiques a été estimé par le test du bouchon. Ce test consiste à positionner les animaux de telle sorte qu'ils puissent maintenir pendant au moins 20 seconds leurs pattes en appui sur une colonne formée de trois bouchons de liège superposés (hauteur totale 11 cm). Les performances réalisées pour chaque groupe d'animaux ont été comparées à celles du croupe d'animaux témoins n'ayant reçu que le véhicule et la prochlorpérazine.
Le tableau II ci-dessous montre le pourcentage d'antagonisme de l'installation de la catalepsie provoquée par la prochlorpérazine.

[3] = system: toxicité de groupe due à l'amphétamine; assay: Antagonism of amphetamine group toxicity (predictive of antipsychotic activity); assay type: in vivo, souris Charles River CD1; conditions: Mus musculus, ip; mice, compound i.p. 30 min before amphetamine 30 mg/kg i.p.; mortality over 24 h; confidence limits 10,1 - 26,7; read-out: DE50 (limites de confiance) d'antagonisme de la mortalité due à l'amphétamine
Text: L'activité antipsychotique d'un composé représentatif, le monomaléate de 2-(1-pipérazinyl)pyrimidine, a été déterminée dans le test de l'antagonisme de la toxicité de groupe due à l'amphétamine (J.H. Burn et al., Arch. Int. Pharmacodyn. Ther. 1958, 113, 290).
Le moncmaléate de 2-(1-pipérazinyl)pyrimidine a été administré à des doses croissantes par voie intrapéritonéale à des lots de 10 souris Charles River CD1 pesant 20-22 g et groupées dans des cages de 22 cm de long, 12 cm de large et 12 cm de haute. Trente minutes après l'administration, on a injecté par voie intrapéritonéale de l'amphétamine à la dose de 30 mg/kg. La mortalité des animaux a été évaluée durant les 24 h qui ont suivi l'injection d'amphétamine et comparée, dans chaque groupe, à celle du groupe d'animaux témoins n'ayant reçu que le véhicule (sérum physiologique).
Le tableau I ci-dessous montre la dose efficace médiane (DE50) d'antagonisme de la mortalité due à l'amphétamine.

SMILES	activité antifilariale (activité antifilariale)	activité analgésique [1]	% d'antagonisme de l'installation de la catalepsie provoquée par la prochlorpérazine ([2]; dose 0,1 mg/kg i.p.) [%]	% d'antagonisme de l'installation de la catalepsie provoquée par la prochlorpérazine ([2]; dose 1 mg/kg i.p.) [%]	ED50 [3] [mg/kg]
c1cnc(N2CCNCC2)nc1 [2-(l-pipérazinyl)pyrimidine]	aucun n'a montré d'activité	aucun n'a montré d'activité			
c1cnc(N2CCNCC2)nc1 [2-(1-pipérazinyl)pyrimidine monomaléate, monomaléatede 2-(1-pipérazinyl)pyrimidine]			20	80	16.5
